Among the data in patent publication US9765075B2, “Substituted bridged urea analogs as sirtuin modulators” (GLAXOSMITHKLINE LLC, priority 2013, dated 2017) are IC50 values, retold here.

The IC50 is the midpoint of a concentration-inhibition curve. Read a low IC50 as greater potency.

What all share (assay): SIRT1 inhibition assay, OAcADPr mass spectrometry
What all share (format): biochemical

In one test the target is T1, full-length hSIRT1 I223A (Homo sapiens, UniProt Q96EB6, I223A).
T1 construct: The following point mutants of full-length hSIRT1 were generated; His6 (C); made in house
T1 sequence (Q96EB6 1-747 I223A): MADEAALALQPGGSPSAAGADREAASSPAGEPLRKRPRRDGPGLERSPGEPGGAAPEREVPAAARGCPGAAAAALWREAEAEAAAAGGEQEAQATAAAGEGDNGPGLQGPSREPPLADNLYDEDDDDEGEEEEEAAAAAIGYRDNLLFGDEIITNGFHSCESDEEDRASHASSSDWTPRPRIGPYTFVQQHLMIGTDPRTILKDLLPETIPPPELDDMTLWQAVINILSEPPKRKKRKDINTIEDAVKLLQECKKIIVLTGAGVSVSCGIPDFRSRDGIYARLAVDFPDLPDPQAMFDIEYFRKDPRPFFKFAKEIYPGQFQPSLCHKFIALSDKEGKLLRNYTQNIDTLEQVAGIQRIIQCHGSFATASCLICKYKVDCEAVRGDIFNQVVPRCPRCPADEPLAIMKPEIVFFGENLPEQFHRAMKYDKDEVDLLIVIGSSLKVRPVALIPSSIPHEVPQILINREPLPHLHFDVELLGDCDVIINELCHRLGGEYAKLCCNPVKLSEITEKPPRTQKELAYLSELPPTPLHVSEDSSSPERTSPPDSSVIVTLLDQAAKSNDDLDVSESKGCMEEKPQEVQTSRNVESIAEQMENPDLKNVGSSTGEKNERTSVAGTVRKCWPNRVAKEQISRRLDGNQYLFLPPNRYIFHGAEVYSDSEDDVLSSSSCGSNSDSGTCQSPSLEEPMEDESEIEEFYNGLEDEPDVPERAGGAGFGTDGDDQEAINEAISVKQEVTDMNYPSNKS

A further test concerns the target T2, full-length hSIRT1 N226A (Homo sapiens, UniProt Q96EB6, N226A).
T2 construct: The following point mutants of full-length hSIRT1 were generated; His6 (C); made in house
T2 sequence (Q96EB6 1-747 N226A): T1 sequence (Q96EB6 1-747 I223A) with A223I, N226A

The target in a further test is T3, full-length hSIRT1 E230K (Homo sapiens, UniProt Q96EB6, E230K).
T3 construct: His6 (C); made in house
T3 sequence (Q96EB6 1-747 E230K): T1 sequence (Q96EB6 1-747 I223A) with A223I, E230K

Positions count from the first letter of the chain named. Where a name gives a salt, the structure may show the parent alone.

As to `CCCC[C@H](NC(=O)[C@H](CC(C)C)NC(=O)[C@H](CCCCNC(=O)C(F)(F)F)NC(=O)[C@H](CCCCN)NC(=O)[C@H](Cc1c[nH]cn1)NC(=O)[C@H](CCCNC(=N)N)NC(C)=O)C(=O)N[C@@H](Cc1ccccc1)C(N)=O` [TFA-p53 7-mer, Ac-RHK-K^TFA-L-Nle-F-NH2], the figures for the IC50 against full-length hSIRT1 I223A, on full-length hSIRT1 N226A and on full-length hSIRT1 E230K were 540 ± 150 nM, 350 ± 40 nM and 1600 ± 300 nM, respectively.
